Test results taken from the Deep4Chem optical property database.
Where “and” joins values, the source holds several entries; their conditions need not be identical. Equal values may be shown once.

Assay: solvent given as SMILES

Cc1c2oc3c(C)c(N)cc(C(=O)NC4OC(=O)C(C(C)C)N(C)C(=O)CN(C)C(=O)C5CCCN5C(=O)C(C(C)C)NC4=O)c3nc-2c(C(=O)NC2OC(=O)C(C(C)C)N(C)C(=O)CN(C)C(=O)C3CCCN3C(=O)C(C(C)C)NC2=O)c(N)c1=O (configuration not stated)
absorption maximum (in C1CCOC1): 524.93 nm
absorption maximum (in CC#N): 516.03 nm
absorption maximum (in CC(=O)O): 521 nm
absorption maximum (in CC(C)=O): 522.69 nm
absorption maximum (in CCCCO): 532.67 nm
absorption maximum (in CCCCOC(C)=O): 524.07 nm
absorption maximum (in CCCO): 533.23 nm
absorption maximum (in CCN(CC)CC): 534.89 nm
absorption maximum (in CCO): 531.93 nm
absorption maximum (in CCOC(C)=O): 522.62 nm
absorption maximum (in CN(C)C=O): 535.18 nm
absorption maximum (in CO): 529.7 nm
absorption maximum (in CS(C)=O): 540.29 nm
absorption maximum (in Cc1ccccc1): 528.44 nm
absorption maximum (in ClC(Cl)Cl): 520.12 nm
absorption maximum (in ClCCCl): 517.19 nm
absorption maximum (in O): 514.17 nm
absorption maximum (in O=[N+]([O-])c1ccccc1): 534 nm
absorption maximum (in c1ccccc1): 522.11 nm
absorption maximum (in c1ccncc1): 541.16 nm

C[Si](C)(C)C#Cc1cc(C#C[Si](C)(C)C)c2ccc3c(C(=O)c4ccccc4)cc(C#C[Si](C)(C)C)c4ccc1c2c43
absorption maximum (in ClCCl): 426 nm

CSC1=C(C)C2=C(c3ccc(C)cc3)c3c(C)c(Cl)c(C)n3[B-](F)(F)[N+]2=C1C
absorption maximum (in C1CCOC1): 518 nm

F[B-]1(F)n2c(cc3c4ccccc4c4ccccc4c32)-c2ccc3ccccc3[n+]21
absorption maximum (in ClCCl): 476 nm

CCn1c2ccccc2c2cc(C#Cc3cc(C#Cc4ccc5c(c4)c4ccccc4n5CC)nc(SC)n3)ccc21
absorption maximum (in C1CCOC1): 396 nm
absorption maximum (in CCOC(C)=O): 392 nm
absorption maximum (in CN(C)C=O): 399 nm
absorption maximum (in Cc1ccccc1): 396 nm
absorption maximum (in ClCCl): 396 nm

F[B-]1(F)n2cccc2C=C2C=CC=[N+]21
absorption maximum (in C1CCCCC1): 503.5 nm
absorption maximum (in CC(C)=O): 497.5 nm
absorption maximum (in CCCCCC): 502 nm
absorption maximum (in CCO): 498 nm
absorption maximum (in CCOC(C)=O): 498 nm
absorption maximum (in CO): 497 nm
absorption maximum (in ClCCl): 503 nm
absorption maximum (in OCC(F)(F)F): 497 nm

CC(=O)Nc1ccc2ccc3cccc4ccc1c2c34
absorption maximum (in CC#N): 339 nm
absorption maximum (in CCCCOCCCC): 341 nm
absorption maximum (in CO): 338 nm

CCCCC1(CCCC)c2cc(C#Cc3ccc(C=C(c4ccccc4)c4ccccc4)cc3)ccc2-c2ccc(C#Cc3ccc(C=C(c4ccccc4)c4ccccc4)cc3)cc21
absorption maximum (in C1CCOC1): 376 nm

c1ccc2c(c1)[nH]c1ncccc12
absorption maximum (in CC#N): 338 nm
absorption maximum (in CCCCCC): 336 nm

CCCc1cc2c(s1)-c1cc3c(cc1NB2c1ccccc1)-c1sc(CCC)cc1B(c1ccccc1)N3
absorption maximum (in ClCCl): 411 nm

c1ccc2c(c1)-c1cc(-n3c4ccccc4c4ccccc43)ccc1C21c2ccccc2-n2c3ccccc3c3cccc1c32 (configuration not stated)
absorption maximum (in ClCCl): 339 nm

CCOC(=O)c1ccc(C2CC(c3cccc4ccccc34)=NN2c2ccc(Cl)cc2)cc1 (configuration not stated)
absorption maximum (in ClCCl): 378 nm

O=c1c2cc(F)c(N3CCCCC3)cc2oc2cc(N3CCCCC3)c(F)cc12
absorption maximum (in CCO): 369 nm

CC(C)[Si]1(C(C)C)c2ccccc2-c2ccc(N(C)C)cc21
absorption maximum (in C1CCCCC1): 323 nm
absorption maximum (in CC#N): 321 nm
absorption maximum (in CCO): 319 nm
absorption maximum (in CCOCC): 318 nm
absorption maximum (in CS(C)=O): 324 nm
absorption maximum (in ClCCl): 323 nm
absorption maximum (in c1ccccc1): 323 nm

CC(=O)c1c(N[C@@H](Cc2ccc(O)cc2)C(=O)O)c2ccc(N(C)C)cc2oc1=O
absorption maximum (in ClCCl): 368 nm

CC1=CC(C)=[N+]2C1=C(c1c3ccccc3c(C)c3ccccc13)c1c(C)cc(C)n1[B-]2(F)F
absorption maximum (in CC#N): 503 nm
absorption maximum (in CCCCCC): 505 nm
absorption maximum (in CCO): 504 nm
absorption maximum (in CN(C)C=O): 506 nm
absorption maximum (in Cc1ccccc1): 509 nm
absorption maximum (in ClCCl): 506 nm

CN(C)c1ccc(C(=O)Nc2cccc(Br)c2)cc1
absorption maximum (in C1CCCCC1): 310 nm
absorption maximum (in C1CCOC1): 317 nm
absorption maximum (in CC#N): 318 nm
absorption maximum (in CCOCC): 312 nm

F[B-]1(F)n2c(cc(Br)c2Br)C(c2ccccc2)=C2C=C(Br)C(c3ccc[nH]3)=[N+]21
absorption maximum (in ClC(Cl)Cl): 626 nm

CN(C)c1ccc(/C=C/C=N/N=C/c2ccc3ccc4cccc5ccc2c3c45)cc1
absorption maximum (in CC#N): 426 nm
absorption maximum (in CC(C)(C)O): 420 nm
absorption maximum (in CC(C)=O): 418 nm
absorption maximum (in CC(C)O): 432 nm
absorption maximum (in CCCCO): 433 nm
absorption maximum (in CO): 434 nm
absorption maximum (in CS(C)=O): 438 nm
absorption maximum (in ClC(Cl)Cl): 433 nm
absorption maximum (in ClCCl): 430 nm
absorption maximum (in O): 420 nm

CCC1=C(C)C(=O)n2c1cc1c(c(C)c(C(=O)OCC(C)C)n1CC(C)C)c2=O
absorption maximum (in C1CCCCC1): 397 nm
absorption maximum (in CO): 397 nm
absorption maximum (in CS(C)=O): 397 nm
absorption maximum (in ClC(Cl)Cl): 399 nm
absorption maximum (in c1ccccc1): 397 nm

c1ccc2c(c1)c1ccccc1n2-c1ccc(-c2ccc(-n3c4ccccc4c4ccccc43)nc2-n2c3ccccc3c3ccccc32)nn1
absorption maximum (in CC#N): 335 nm
absorption maximum (in Cc1ccccc1): 346 nm
absorption maximum (in ClCCl): 337 nm

COc1ccc(C2=C(c3ccc(OC)cc3)C(c3ccccc3)=[N+]3C2=Nc2c(-c4ccc(OC)cc4)c(-c4ccc(OC)cc4)c(-c4ccccc4)n2[B-]3(F)F)cc1
absorption maximum (in Cc1ccccc1): 654 nm

Cc1cc(-c2ccccc2)cc(C)[o+]1
absorption maximum (in CC#N): 326 nm
absorption maximum (in ClCCl): 343 nm

C(=C\c1cnc2ccccc2n1)/c1ccc(N2CCCCC2)cc1
absorption maximum (in C1CCOC1): 410 nm
absorption maximum (in CC#N): 410 nm
absorption maximum (in CCCCCCC): 402 nm
absorption maximum (in CS(C)=O): 423 nm
absorption maximum (in ClCCl): 414 nm

c1ccc(N(c2ccccc2)c2ccc3c(ccc4nc5ccc6cc(N(c7ccccc7)c7ccccc7)ccc6c5nc43)c2)cc1
absorption maximum (in C1CCCCC1): 471 nm
absorption maximum (in C1CCOC1): 474 nm
absorption maximum (in CN(C)C=O): 477 nm
absorption maximum (in Cc1ccccc1): 473 nm
absorption maximum (in ClCCl): 476 nm

CC1=CC(/C=C/c2ccc([N+](C)(C)C)cc2)=[N+]2C1=C(c1ccc(C#CCO[C@@H]3O[C@H](CO)[C@@H](O)C(O)[C@H]3O)cc1)c1c(C)cc(/C=C/c3ccc([N+](C)(C)C)cc3)n1[B-]2(F)F (some centres not stated)
absorption maximum (in CC#N): 618 nm

c1ccc(-c2nc(-c3ccccc3)nc(-c3cc(-n4c5ccccc5c5ncccc54)c(-n4c5ccccc5c5ccccc54)c(-n4c5ccccc5c5ncccc54)c3)n2)cc1
absorption maximum (in Cc1ccccc1): 376.56 nm

Clc1nnc(O/N=C/c2ccc(N(c3ccccc3)c3ccccc3)cc2)nn1
absorption maximum (in ClCCl): 518 nm

CCOC(=O)CCCCCn1c2ccccc2c(=O)c2cc3c(cc21)c(=O)c1ccccc1n3CC
absorption maximum (in CO): 528 nm

CCN(CC)c1ccc2cc(-c3csc(NC(C)=O)c3C#N)c(=O)oc2c1
absorption maximum (in CO): 404 nm
absorption maximum (in CS(C)=O): 394 nm
absorption maximum (in Cc1ccccc1): 402 nm

CCN(CC)c1ccc2cc(C#N)/c(=N\C(=O)c3ccc(C)cc3)oc2c1
absorption maximum (in CCO): 430 nm
absorption maximum (in ClCCl): 436 nm

c1ccc(-c2nc(-c3ccc(-c4nc(-c5ccccc5)c(-c5ccccc5)[nH]4)cc3)[nH]c2-c2ccccc2)cc1
absorption maximum (in C1CCOC1): 361 nm
absorption maximum (in CC#N): 355 nm and 358 nm
absorption maximum (in CC(=O)O): 360 nm
absorption maximum (in CC(C)=O): 360 nm
absorption maximum (in CCOC(C)=O): 359 nm
absorption maximum (in CCOCC): 359 nm
absorption maximum (in CO): 357 nm
absorption maximum (in CS(C)=O): 380 nm
absorption maximum (in ClC(Cl)Cl): 358 nm

CSc1ccc(/C=C/c2ccncn2)cc1
absorption maximum (in ClCCl): 346 nm

Cc1ccccc1C1CC(=O)Oc2c1c1nc3ccccc3nc1c1ccccc21 (configuration not stated)
absorption maximum (in ClC(Cl)Cl): 410 nm

C[Si]1(c2ccccc2)C(c2ccc3c4ccccc4n(-c4ccccc4)c3c2)=C(c2ccccc2)C(c2ccccc2)=C1c1ccc2c3ccccc3n(-c3ccccc3)c2c1
absorption maximum (in C1CCOC1): 398 nm

C(=C\c1ccnc(/C=C/c2ccc(N(c3ccccc3)c3ccccc3)cc2)n1)/c1ccc(N(c2ccccc2)c2ccccc2)cc1
absorption maximum (in ClCCl): 402 nm

CC1(C)CC(=O)C2=C(C1)Oc1ccc3ccc(O)cc3c1C2c1ccccn1 (configuration not stated)
absorption maximum (in C1CCOC1): 335 nm
absorption maximum (in C1COCCO1): 335 nm
absorption maximum (in CC#N): 334 nm
absorption maximum (in CCCCCCC): 276 nm
absorption maximum (in CCO): 334 nm
absorption maximum (in CO): 341 nm
absorption maximum (in O): 274 nm

CN(C)c1ccc(/C=C/C=C2\CCCC2=O)cc1
absorption maximum (in CC#N): 409 nm
absorption maximum (in CC(C)=O): 416 nm
absorption maximum (in CC(C)O): 420 nm
absorption maximum (in CCCCCC): 394 nm
absorption maximum (in CCCCO): 425 nm
absorption maximum (in CCCO): 422 nm
absorption maximum (in CCO): 422 nm
absorption maximum (in CCOC(C)=O): 408 nm
absorption maximum (in CCOCC): 399 nm
absorption maximum (in CN(C)C=O): 408 nm
absorption maximum (in CO): 420 nm
absorption maximum (in CS(C)=O): 416 nm
absorption maximum (in Cc1ccccc1): 409 nm
absorption maximum (in ClC(Cl)(Cl)Cl): 407 nm
absorption maximum (in ClC(Cl)Cl): 404 nm
absorption maximum (in ClCCl): 420 nm
absorption maximum (in c1ccccc1): 411 nm
absorption maximum (in c1ccncc1): 419 nm

CC(C)CCC[C@@H](C)[C@H]1CC[C@H]2[C@@H]3CC=C4C[C@@H](OC(=O)Oc5cc(/C=C/C=C/c6ccc(N(C)C)cc6)ccc5[N+](=O)[O-])CC[C@]4(C)[C@H]3CC[C@]12C
absorption maximum (in CO): 448 nm

COc1ccc(-c2cc(C)nc(-c3ccc(-n4c5ccccc5c5ccccc54)cc3)n2)cc1
absorption maximum (in C1CCOC1): 339 nm
absorption maximum (in CN(C)C=O): 340 nm
absorption maximum (in Cc1ccccc1): 341 nm
absorption maximum (in ClC(Cl)Cl): 342 nm

N#Cc1c(-n2nnc3c2-c2ccccc2CN(C(=O)CCN)c2ccccc2-3)n([C@H]2C[C@H](O)[C@@H](CO)O2)c2ncnc(N)c12
absorption maximum (in CO): 290 nm

CN1C(=CC2=C([O-])C(=Cc3oc4ccccc4[n+]3C)C2=C(C#N)C#N)Sc2ccccc21
absorption maximum (in ClC(Cl)Cl): 664 nm

c1ccc(B2Nc3cc4c(cc3-c3occc32)NB(c2ccccc2)c2ccoc2-4)cc1
absorption maximum (in ClCCl): 388 nm

CCCCCCN1C(=O)c2cccc3cc(/N=C\c4nc5ccccc5s4)cc(c23)C1=O
absorption maximum (in ClC(Cl)Cl): 370 nm
